In brackets after ≈: the same amount, converted by molar mass. Read-outs that look alike come from different tables or passages of the source.
Key:
[1] = tested on: Candida albicans ATCC 10231; assay: cup-plate agar diffusion method, inhibition zone diameters; type: cell-based
[2] = tested on: Candida albicans ATCC 10231; assay: broth microdilution MIC/MFC; type: cell-based
[3] = tested on: Candida parapsilosis ATCC 22019; assay: broth microdilution MIC/MFC; type: cell-based; conditions: Lodderomyces parapsilosis, ATCC22019
[4] = tested on: Candida albicans ATCC 18804; assay: broth microdilution MIC/MFC; type: cell-based
[5] = lipophilicity by RP-TLC with PCA; type: physicochemical; design: key to P1 / P2: PCA scores of compounds computed from Rf data; conditions: for RM0: RP-TLC C18, water-i-propanol 45-65%, intercept, RM extrapolated to 0% organic modifier (lipophilicity); for b: RP-TLC regression slope (specific hydrophobic surface area); for P1: score of first principal component of Rf data, low P1 = highly lipophilic; for P2: score of second principal component of Rf data
Protocol: The lipophilic character of twenty thiazolin-4-one derivatives was assessed with the help of the principal component analysis (PCA) based on the reversed-phase thin-layer chromatography (RP-TLC) data.
The chromatographic behavior of the test compounds was studied on C18 silicagel bonded 60 RP-180F254S TLC (20 × 20 cm) plates, purchased from Merck (Darmstadt, Germany). The test compounds’ solutions (1 mg/mL) were prepared by dissolving the samples in DMSO (Merck, Darmstadt, Germany). The plates were manually spotted with 3 µL aliquots of each solution at 10 mm from the base and 5 mm from the edge of the plate, leaving a 10 mm distance between successive spots, and developed by the ascending technique, without preconditioning. Chromatography was performed in a normal developing chamber at room temperature (~24 °C), the developing distance being of 9 cm. The solvent system used as mobile phase consisted of a water-i-propanol mixture, with a varying content of organic modifier (i-propanol—concentration ranged between 45% and 65% (v/v), with 5% vol. increments). Before the development, the chamber was saturated with the mobile phase for 15 min. After being developed, the dried plates were visually inspected under the UV light (λ = 254 nm), each spot was clearly marked and its distance was manually measured in order to calculate the Rf values. The spots of the compounds 3f, 10 and 11 were not visible in UV light, thus their Rf values could not be calculated, therefore they were excluded from this assay.
Based on the Rf values, one of the most common lipophilic estimator, meaning the isocratic retention factor RM was calculated using the Bate-Smith and Westall equations [40].
RP-TLC provides retention data in the form of Rf and the corresponding RM values (Equation (2)) that can be used to derive chromatographic descriptors for estimating lipophilicity: RM0, b and PCA. The most popular lipophilicity descriptor estimated by this method is RM and it is derived from the retention factor (Rf) according to the following formula: RM = log[(1/Rf) − 1] (2) where Rf is calculated on the basis of migration distance of a compound and the solvent front.
As RM value (related to the molecular lipophilicity) depends linearly on the concentration of the organic modifier in the mobile phase, the value is extrapolated to pure water as mobile phase. In order to increase the accuracy of the lipophilicity determination, the RM values extrapolated to zero organic modifier concentration (RM0) have been calculated from the linear correlation between the RM values and the concentration of the organic component of the mobile phase: RM = RM0 + bc (3) where RM0 is the lipophilicity estimation parameter, RM is the retention of the solute, b is the slope, and c is the concentration of the mobile phase organic modifier (i-propanol).
The intercept (RM0) in Equation (3) represents the extrapolated RM values at 0% organic modifier.
PCA was performed on the obtained retention parameters with the help of XL-STAT extension. […] PCA gave the coordinates (scores) of the studied compounds and also the loadings of the variables (solvents) on the principal components.

Candida krusei ATCC 6258 = assay: broth microdilution MIC/MFC; type: cell-based; conditions: Pichia kudriavzevii, ATCC6258
[6] = ATCC10231, C. albicans ATCC 10231, 1 mg/mL in DMSO, 20 µg/well, mean of three ± SD, read-out: inhibition zone diameters
[7] = ATCC10231, C. albicans ATCC 10231, read-out: MFC
[8] = ATCC10231, C. albicans ATCC 10231, read-out: MIC
[9] = C. parapsilosis ATCC 22019, read-out: MFC
[10] = C. parapsilosis ATCC 22019, read-out: MIC
[11] = ATCC18804, C. albicans ATCC 18804, read-out: MFC
[12] = ATCC18804, C. albicans ATCC 18804, read-out: MIC
[13] = C. krusei ATCC 6258, read-out: MFC
[14] = C. krusei ATCC 6258, read-out: MIC

MIC [2, 8]	MIC [3, 10]	melting point	MIC [4, 12]	RM0 [5]	b [5]	P1 [5]	P2 [5]	MIC (Candida krusei ATCC 6258; [14])	SMILES	zone of inhibition at 1000 µg/mL [1, 6]	MFC [2, 7]	MFC [3, 9]	MFC [4, 11]	MFC (Candida krusei ATCC 6258; [13])	further results
0.12 mg/L (≈ 0.768 µM)	0.12 mg/L (≈ 0.768 µM)	90 to 91 °C	0.24 mg/L (≈ 1.54 µM)	0.0414	−1.1059	4.335	0.879	0.24 mg/L (≈ 1.54 µM)	C=CCNC1=NC(=O)CS1 [Compound 2, 2-(allylamino)thiazol-4(5H)-one]	20 ± 0.2 mm	0.24 mg/L (≈ 1.54 µM)	0.24 mg/L (≈ 1.54 µM)	0.48 mg/L (≈ 3.07 µM)	0.48 mg/L (≈ 3.07 µM)	
31.2 mg/L (≈ 112 µM)	7.81 mg/L (≈ 28 µM)	198 °C	15.6 mg/L (≈ 56 µM)	2.0801	−3.6152	−0.090	−0.268	15.6 mg/L (≈ 56 µM)	C=CCNC1=NC(=O)C(=Cc2cccc(Cl)c2)S1 [Compound 3a, 2-(Allylamino)-5-(3-chlorobenzylidene)thiazol-4(5H)-one]	20 ± 0.5 mm	31.2 mg/L (≈ 112 µM)	15.6 mg/L (≈ 56 µM)	31.2 mg/L (≈ 112 µM)	31.2 mg/L (≈ 112 µM)	
31.2 mg/L (≈ 99.8 µM)	7.81 mg/L (≈ 24.9 µM)	238 °C	15.6 mg/L (≈ 49.9 µM)	2.2398	−3.6102	−1.263	−0.062	15.6 mg/L (≈ 49.9 µM)	C=CCNC1=NC(=O)C(=Cc2ccc(Cl)cc2Cl)S1 [Compound 3b, 2-(Allylamino)-5-(2,4-dichlorobenzylidene)thiazol-4(5H)-one]	20 ± 0.5 mm	31.2 mg/L (≈ 99.8 µM)	15.6 mg/L (≈ 49.9 µM)	15.6 mg/L (≈ 49.9 µM)	31.2 mg/L (≈ 99.8 µM)	
31.2 mg/L (≈ 108 µM)	15.6 mg/L (≈ 54 µM)	265 °C	31.2 mg/L (≈ 108 µM)	1.7553	−3.314	1.049	−0.259	15.6 mg/L (≈ 54 µM)	C=CCNC1=NC(=O)C(=Cc2ccc([N+](=O)[O-])cc2)S1 [Compound 3c, 2-(Allylamino)-5-(4-nitrobenzylidene)thiazol-4(5H)-one]	18 ± 1 mm	31.2 mg/L (≈ 108 µM)	31.2 mg/L (≈ 108 µM)	31.2 mg/L (≈ 108 µM)	15.6 mg/L (≈ 54 µM)	
31.2 mg/L (≈ 95.4 µM)	7.81 mg/L (≈ 23.9 µM)	339 °C	31.2 mg/L (≈ 95.4 µM)	2.2119	−3.7366	−0.549	−0.241	15.6 mg/L (≈ 47.7 µM)	C=CCNC1=NC(=O)C(=Cc2csc(-c3ccccc3)n2)S1 [Compound 3d, 2-(Allylamino)-5-((2-phenylthiazol-4-yl)methylene)thiazol-4(5H)-one]	20 ± 0.2 mm	62.5 mg/L (≈ 191 µM)	15.6 mg/L (≈ 47.7 µM)	62.5 mg/L (≈ 191 µM)	31.2 mg/L (≈ 95.4 µM)	
31.2 mg/L (≈ 90.1 µM)	7.81 mg/L (≈ 22.5 µM)	299 to 301 °C	15.6 mg/L (≈ 45 µM)	2.2869	−3.9184	−0.349	−0.354	15.6 mg/L (≈ 45 µM)	C=CCNC1=NC(=O)C(=Cc2coc3ccc(Cl)cc3c2=O)S1 [Compound 3e, 2-(Allylamino)-5-((6-chloro-4-oxo-4H-chromen-3-yl)methylene)thiazol-4(5H)-one]	20 ± 0.5 mm	62.5 mg/L (≈ 180 µM)	15.6 mg/L (≈ 45 µM)	31.2 mg/L (≈ 90.1 µM)	31.2 mg/L (≈ 90.1 µM)	
1.95 mg/L (≈ 6.03 µM)	1.95 mg/L (≈ 6.03 µM)	330 °C	7.81 mg/L (≈ 24.2 µM)					3.9 mg/L (≈ 12.1 µM)	C=CCNC1=NC(=O)C(=Cc2cccc(Br)c2)S1 [Compound 3f, 2-(Allylamino)-5-(3-bromobenzylidene)thiazol-4(5H)-one]	22 ± 0.2 mm	3.9 mg/L (≈ 12.1 µM)	3.9 mg/L (≈ 12.1 µM)	15.6 mg/L (≈ 48.3 µM)	7.81 mg/L (≈ 24.2 µM)	
0.48 mg/L (≈ 1.65 µM)	0.24 mg/L (≈ 0.827 µM)	240 °C	0.48 mg/L (≈ 1.65 µM)	0.6734	−1.9546	3.365	0.453	0.48 mg/L (≈ 1.65 µM)	C=CCNC1=NC(=O)C(=Cc2ccc(O)c(OC)c2)S1 [Compound 3g, 2-(Allylamino)-5-(4-hydroxy-3-methoxybenzylidene)thiazol-4(5H)-one]	22 ± 0.2 mm	1.95 mg/L (≈ 6.72 µM)	0.48 mg/L (≈ 1.65 µM)	0.97 mg/L (≈ 3.34 µM)	1.95 mg/L (≈ 6.72 µM)	
0.24 mg/L (≈ 0.922 µM)	0.12 mg/L (≈ 0.461 µM)	338 °C	0.48 mg/L (≈ 1.84 µM)	1.1465	−2.6897	2.905	0.056	0.24 mg/L (≈ 0.922 µM)	C=CCNC1=NC(=O)C(=Cc2ccc(O)cc2)S1 [Compound 3h, 2-(Allylamino)-5-(4-hydroxybenzylidene)thiazol-4(5H)-one]	20 ± 0.5 mm	0.48 mg/L (≈ 1.84 µM)	0.97 mg/L (≈ 3.73 µM)	0.97 mg/L (≈ 3.73 µM)	0.97 mg/L (≈ 3.73 µM)	
15.6 mg/L (≈ 49.6 µM)	3.9 mg/L (≈ 12.4 µM)	278 to 280 °C	7.81 mg/L (≈ 24.8 µM)	2.1738	−3.9258	0.485	−0.534	7.81 mg/L (≈ 24.8 µM)	O=C1N=C(Nc2ccccc2)SC1=Cc1cccc(Cl)c1 [Compound 6a, 5-(3-Chlorobenzylidene)-2-(phenylamino)thiazol-4(5H)-one]	20 ± 0.5 mm	31.2 mg/L (≈ 99.3 µM)	3.9 mg/L (≈ 12.4 µM)	15.6 mg/L (≈ 49.6 µM)	3.9 mg/L (≈ 12.4 µM)	
15.6 mg/L (≈ 44.7 µM)	3.9 mg/L (≈ 11.2 µM)	204 to 206 °C	15.6 mg/L (≈ 44.7 µM)	2.4679	−4.0118	−1.253	−0.186	7.81 mg/L (≈ 22.4 µM)	O=C1N=C(Nc2ccccc2)SC1=Cc1ccc(Cl)cc1Cl [Compound 6b, 5-(2,4-Dichlorobenzylidene)-2-(phenylamino)thiazol-4(5H)-one]	20 ± 1 mm	31.2 mg/L (≈ 89.5 µM)	3.9 mg/L (≈ 11.2 µM)	31.2 mg/L (≈ 89.5 µM)	7.81 mg/L (≈ 22.4 µM)	
0.12 mg/L (≈ 0.495 µM)	0.03 mg/L (≈ 0.124 µM)		0.12 mg/L (≈ 0.495 µM)	1.6225	−3.0931	1.125	−0.163	0.06 mg/L (≈ 0.248 µM)	O=C1CSC(Nc2cccc3ccccc23)=N1 [Compound 8, 2-(naphthalen-1-ylamino)thiazol-4(5H)-one]	24 ± 1 mm	0.24 mg/L (≈ 0.99 µM)	0.12 mg/L (≈ 0.495 µM)	0.24 mg/L (≈ 0.99 µM)	0.12 mg/L (≈ 0.495 µM)	
0.24 mg/L (≈ 1.35 µM)	0.06 mg/L (≈ 0.339 µM)		0.12 mg/L (≈ 0.677 µM)					0.12 mg/L (≈ 0.677 µM)	O=C1CSC(c2ccccc2)=N1 [Compound 11, 2-phenylthiazol-4(5H)-one]	18 ± 1 mm	0.48 mg/L (≈ 2.71 µM)	0.12 mg/L (≈ 0.677 µM)	0.24 mg/L (≈ 1.35 µM)	0.48 mg/L (≈ 2.71 µM)	

SMILES	MIC [2, 8]	MIC [3, 10]	melting point	MIC [4, 12]	RM0 [5]	b [5]	P1 [5]	P2 [5]	MIC (Candida krusei ATCC 6258; [14])	zone of inhibition at 1000 µg/mL [1, 6]	MFC [2, 7]	MFC [3, 9]	MFC [4, 11]	MFC (Candida krusei ATCC 6258; [13])	further results
O=C1CSC(Nc2ccccc2)=N1 [Compound 5, 2-(phenylamino)thiazol-4(5H)-one]					0.9459	−2.2931	2.796	0.238							zone of inhibition at 1000 µg/mL ([1]; ATCC10231, read-out: inhibition zone diameters): 22 ± 0.5 mm; MFC ([2]; ATCC10231): 0.48 mg/L (≈ 2.5 µM); MIC ([2]; ATCC10231): 0.24 mg/L (≈ 1.25 µM); MFC [3]: 0.12 mg/L (≈ 0.624 µM); MIC [3]: 0.06 mg/L (≈ 0.312 µM); MFC ([4]; ATCC18804): 0.24 mg/L (≈ 1.25 µM); MIC ([4]; ATCC18804): 0.12 mg/L (≈ 0.624 µM); MFC (Candida krusei ATCC 6258): 0.12 mg/L (≈ 0.624 µM); MIC (Candida krusei ATCC 6258): 0.06 mg/L (≈ 0.312 µM)

— article PMC5297809, “Design, Synthesis and Antifungal Activity Evaluation of New Thiazolin-4-ones as Potential Lanosterol 14α-Demethylase Inhibitors” (International Journal of Molecular Sciences, 2017)
